Structures can show the parent of a compound that is named as a salt.
molecular target: human cloned 5-HT6 receptors (Homo sapiens, UniProt P50406)
Sequence (P50406 whole entry): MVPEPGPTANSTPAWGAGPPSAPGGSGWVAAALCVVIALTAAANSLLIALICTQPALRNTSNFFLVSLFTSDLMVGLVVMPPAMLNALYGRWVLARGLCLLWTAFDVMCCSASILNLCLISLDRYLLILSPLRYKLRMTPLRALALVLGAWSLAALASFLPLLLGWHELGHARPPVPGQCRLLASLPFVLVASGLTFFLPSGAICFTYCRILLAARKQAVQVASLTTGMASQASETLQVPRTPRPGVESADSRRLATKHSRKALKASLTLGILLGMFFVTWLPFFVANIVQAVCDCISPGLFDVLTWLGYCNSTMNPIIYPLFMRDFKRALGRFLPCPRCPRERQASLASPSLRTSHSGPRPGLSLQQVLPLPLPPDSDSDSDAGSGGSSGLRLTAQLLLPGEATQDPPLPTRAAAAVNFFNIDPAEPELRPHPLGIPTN

First: CN1CCC(c2n[nH]c3ccc(S(=O)(=O)c4cccc5ccccc45)cc23)CC1 [Example 4, 3-(1-Methylpiperidin-4-yl)-5-(1-naphthylsulfonyl)-1H-indazole hydrochloride]
Second: CN1CCC(c2n[nH]c3ccc(S(=O)(=O)c4ccc5ccccc5c4)cc23)CC1 [Example 13, 3-(1-methylpiperidin-4-yl)-5-(2-naphthylsulfonyl)-1H-indazole]
The Ki of the first is 2.5-fold lower: 3.8 nM for the first, 9.6 nM for the second.

Going from `CN1CCC(c2n[nH]c3ccc(S(=O)(=O)c4ccccc4)cc23)CC1` [Example 5, 3-(1-methylpiperidin-4-yl)-5-(phenylsulfonyl)-1H-indazole] to `CN1CCC(c2n[nH]c3ccc(S(=O)(=O)c4cccc(F)c4)cc23)CC1` [Example 6, 5-[(3-fluorophenyl)sulfonyl]-3-(1-methylpiperidin-4-yl)-1H-indazole], the Ki rises from 55 nM to 93 nM (1.7-fold). The first binds more tightly here.

Going from `CN1CCC(c2n[nH]c3ccc(S(=O)(=O)c4cccc(Cl)c4)cc23)CC1` [Example 7, 5-[(3-chlorophenyl)sulfonyl]-3-(1-methylpiperidin-4-yl)-1H-indazole] to `Cc1cccc(S(=O)(=O)c2ccc3[nH]nc(C4CCN(C)CC4)c3c2)c1` [Example 9, 5-[(3-methylphenyl)sulfonyl]-3-(1-methylpiperidin-4-yl)-1H-indazole], the Ki rises from 19 nM to 50 nM (2.6-fold).

First: CN1CCC(c2n[nH]c3ccc(S(=O)(=O)c4ccc(F)cc4)cc23)CC1 [Example 8, 5-[(4-fluorophenyl)sulfonyl]-3-(1-methylpiperidin-4-yl)-1H-indazole]
Second: COc1ccc(S(=O)(=O)c2ccc3[nH]nc(C4CCN(C)CC4)c3c2)cc1 [Example 14]
The Ki of the first is 1.9-fold lower: 66 nM for the first, 123 nM for the second. The first binds more tightly here.

`CN1CCC(c2n[nH]c3ccc(S(=O)(=O)c4ccc(C(F)(F)F)cc4)cc23)CC1` [Example 10, 3-(1-methylpiperidin-4-yl)-5-{[4-(trifluoromethyl)phenyl]sulfonyl}-1H-indazole] and `CN1CCC(c2n[nH]c3ccc(S(=O)(=O)c4ccc(OC(F)(F)F)cc4)cc23)CC1` [Example 11, 3-(1-methylpiperidin-4-yl)-5-{[4-(trifluoromethoxy)phenyl]sulfonyl}-1H-indazole] are within 1.5-fold of each other in Ki: 46 nM for the first, 48 nM for the second.

With `CC(C)c1ccc(S(=O)(=O)c2ccc3[nH]nc(C4CCN(C)CC4)c3c2)cc1` [Example 12, 5-[4-(isopropylphenyl)sulfonyl]-3-(1-methylpiperidin-4-yl)-1H-indazole] the Ki was 14 nM.

Source: patent US7482461B2, “Sulfonyl-3-heterocyclylindazole derivatives as 5-hydroxytryptamine-6 ligands” (Wyeth, priority 2006, dated 2009)
